# “Also recorded” adds a separate entry of the source. Bridge positions count the residues as written; N and C are the ends. Ends that are not written are not given here.
# Experiments:
# [1] = tested on: GPRC6A; conditions: ref [6] (supplement list); cited from earlier work
# Description: (§1) Supplement pone.0146846.s004.docx, table 1 | column: Functional assay
# [2] = target: T1, mGPRC6A (mouse GPRC6A) (Mus musculus, UniProt Q8K4Z6); experiment: Ca^2+i mobilisation, FlpIn-TREx-HEK293-mGPRC6A cells; assay type: cell-based; conditions: for activity in calcium mobilisation assays: with co-expressed Gαq or GαqG66D
# T1 sequence (Q8K4Z6 21-928): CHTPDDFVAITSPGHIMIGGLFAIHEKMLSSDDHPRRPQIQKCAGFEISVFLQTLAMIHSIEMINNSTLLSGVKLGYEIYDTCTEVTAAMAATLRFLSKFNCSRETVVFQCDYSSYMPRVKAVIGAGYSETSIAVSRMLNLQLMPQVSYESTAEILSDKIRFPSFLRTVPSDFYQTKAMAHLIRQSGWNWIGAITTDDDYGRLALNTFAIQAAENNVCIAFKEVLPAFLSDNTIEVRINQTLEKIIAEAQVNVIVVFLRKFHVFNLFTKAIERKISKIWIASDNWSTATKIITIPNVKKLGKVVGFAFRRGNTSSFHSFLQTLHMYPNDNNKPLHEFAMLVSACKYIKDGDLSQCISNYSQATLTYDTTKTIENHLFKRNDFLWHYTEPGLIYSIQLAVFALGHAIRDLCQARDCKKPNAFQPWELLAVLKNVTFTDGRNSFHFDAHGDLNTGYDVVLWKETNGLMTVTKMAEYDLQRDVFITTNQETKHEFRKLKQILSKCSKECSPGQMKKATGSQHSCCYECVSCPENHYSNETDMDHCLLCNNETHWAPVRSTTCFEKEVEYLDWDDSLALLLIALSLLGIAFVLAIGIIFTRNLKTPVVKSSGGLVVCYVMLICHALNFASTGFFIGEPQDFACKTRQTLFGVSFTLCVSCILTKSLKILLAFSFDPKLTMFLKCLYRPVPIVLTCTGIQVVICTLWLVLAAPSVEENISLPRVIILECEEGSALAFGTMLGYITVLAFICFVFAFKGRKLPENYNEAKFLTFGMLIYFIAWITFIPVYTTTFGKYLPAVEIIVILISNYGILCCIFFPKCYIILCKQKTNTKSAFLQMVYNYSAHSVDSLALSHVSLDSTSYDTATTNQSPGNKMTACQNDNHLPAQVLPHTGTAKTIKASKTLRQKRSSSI
# Description: pcDNA 5/FRT/TO constructs were isogenically integrated into a FlpIn-TREx-HEK293 cell line (Life Technologies). FlpIn-TREx-HEK293-mGPRC6A and FlpIn-TREx-HEK293-hGPRC6A cells were then selected using 600 μg/ml hygromycin and 5 μg/ml blasticidin and grown in culture medium consisting of Dulbecco’s Modified Eagle Medium (DMEM), supplemented with 10% (v/v) foetal bovine serum (FBS) at 37°C in 5% CO2 and were sub-cultured in a 1:3 ratio every 3–4 days. Cells were cultured overnight in the presence of 1 μg/ml tetracycline to induce GPRC6A expression. […] 48 h after transfection, cells were selected using 3 μg/ml puromycin and grown as above.
# FlpIn-TREx-HEK293-mGPRC6A cells were seeded into T75 flasks at 70% confluency. Cells were transfected with 15μg of plasmid DNA (Gαq or GαqG66D) with Lipofectamine LTX according to manufacturer's instructions, then incubated for 24h at 37°C in 5% CO2. Cells were plated into 96-well plates (10^5 cells/well) and equilibrated at 37°C in 5% CO2 for 4-6h to adhere, whereupon cells were serum starved overnight at 37°C in 5% CO2. For the assay, cells were washed twice in Ca^2+ assay buffer (150 mM NaCl, 2.6 mM KCl, 1.2 mM MgCl2, 10 mM dextrose, 10 mM HEPES, 2.2 mM CaCl2, 0.5% (w/v) BSA and 4 mM probenecid; pH 7.4). Buffer was then replaced with Ca^2+ assay buffer containing 1μM Fluo-4-AM and incubated for 1h at 37°C in 5% CO2. Cells were washed twice more and replaced with Ca^2+ assay buffer at 37°C. Serial dilutions of test agonists were added by injection in a Flexstation™ (Molecular Devices) and fluorescence was measured at 485nm excitation and 520nm emission wavelengths. Agonist responses were normalised to the peak of response to 100 μM ATP.
# (§2) Data for all HEK293 assays represent the mean ± SEM of at least three independent experiments (except cell impedance, n = 2). For GLP-1 release, the data represent mean ± SEM of three to five independent experiments (except for OCN, wash; n = 2). For insulin release assays, data represent the mean ± SEM of three independent experiments (except for islet studies; n = 2). Insulin release data were normalised to the response to vehicle in either low or high [glucose]. Statistical analysis for GLP-1 release data were performed by one-way ANOVA, followed by Sidak’s multiple comparisons test (treating wash / no wash datasets separately). Statistical analyses for insulin release data were performed by two-way ANOVA (with [glucose] and drug treatment as group variables), followed by Sidak’s multiple comparisons test. Where only high [glucose] groups were evaluated, statistical analysis was by one-way ANOVA followed by Sidak’s multiple comparisons test.
# [3] = tested on: 22RV1 / PC-3; conditions: endogenous; ref [9] (supplement list); cited from earlier work
# Description: as §1
# [4] = tested on: mC6A; conditions: ref [10] (supplement list); cited from earlier work
# Description: as §1
# [5] = tested on: INS-1(832) cells; experiment: Label-free cell impedance, INS-1(832) cells; assay type: cell-based, rat; conditions: Gprc6a-negative, EBSS, 2.8 mM glucose, Fig 7, two-way ANOVA, *P < 0.05, **P < 0.01 vs Vehicle
# Description: For INS-1 cells, 100 μl of medium (RPMI 1640 no glucose, 10% FBS, 55 μM β-mercaptoethanol, 1 mM sodium pyruvate, 10 mM HEPES, 100 U/ml penicillin, 100 μg/ml streptomycin, 11.1 mM glucose) was added per well to an E-plate 96 and a background reading taken. Cells were seeded at 2 x 10^4 / well and the plates incubated in the instrument for 48 h. On the day of the experiment, media was changed to EBSS buffer (180 μl; 2.8 mM glucose, 1.8 mM CaCl2, 5.3 mM KCl, 0.8 mM MgSO4, 117 mM NaCl, 26 mM NaHCO3, 1 mM NaH2PO4). After 2 h incubation, cells were stimulated with 20 μl test compound (10 x final) prepared in the same buffer. Data capture and analysis were as for HEK293 cells.
# [6] = tested on: GLUTag cells; experiment: GLP-1 release from GLUTag cells; assay type: cell-based, murine; conditions: 0.01–10 ng/ml; with or without cell washing; 2 h; Fig 6A; listed as Human synthetic OCN
# Description: Intestinal L-cell model GLUTag cells were seeded in 24-well plates coated with Matrigel and incubated for 6 days in DMEM with 10% FBS, 100 U/ml penicillin, 100 μg/ml streptomycin at 37°C in 5% CO2 and grown for 4–5 days. Where indicated, cells were washed (1 or 2 x 1h) with Krebs-HEPES buffer (20 mM HEPES, 118 mM NaCl, 4.7 mM KCl, 1.2 mM MgSO4, 5 mM NaHCO3, 1.2 mM KH2PO4, 2.5 mM CaCl2, 5.5 mM glucose, 0.2% BSA (w/v), pH 7.2) containing vildagliptin (300 μM) prior to addition of test compounds in the same buffer. After 2 h incubation at 37°C in 5% CO2, the supernatant was recovered and centrifuged at 500 rpm for 5 min. Where used, NPS-2143 pre-treatment was for 30 min.
# GLP-1 content in the cell supernatant was measured by ELISA (EGLP-35K, Millipore), according to manufacturer’s instructions after overnight incubation of 15 μl supernatant in 100 μl Krebs-HEPES buffer at 4°C. After 5 x washes, 200 μl of detection conjugate was added and incubated for 2 h at RT. After 3 x washes the reaction was developed with 200 μl of diluted substrate (1:200) for 20 min and terminated by addition of 50 μl stop solution. After 5 min, fluorescence was then measured using 355 nm excitation and 460 nm emission, transforming the obtained signal into pmol GLP-1/well/ml and corrected for GLUTag cell protein content as determined using the method of Bradford (1976).
# as §2, with “Concentration-response data were analysed using a three or four parameter logistic function (Motulsky & Christopoulos, 2004) to generate estimates of agonist potency (LogEC50). Data” for “Data”
# [7] = tested on: GPRC6A; conditions: HEK293, mouse GPRC6A with human OCN; ref [11]; cited from earlier work
# Description: Additional interest in GPRC6A has emerged due to several studies reporting that it mediates the metabolic and endocrine effects of the de-carboxylated form of the osteoblast-derived peptide, osteocalcin (OCN).
compound,measurement,setting,value
[Ca+2].[Cl-].[Cl-] [CaCl2],SRE-reporter gene response,[1],"pERK1/2 – response to Ca^2+, Mg^2+, Gd^3+, Al^3+, NPS R568 SRE-reporter gene – response to CaCl2, SrCl2, MgCl2, GdCl3 and OCN"
[Cl][Gd]([Cl])[Cl] [GdCl3],SRE-reporter gene response,[1],"pERK1/2 – response to Ca^2+, Mg^2+, Gd^3+, Al^3+, NPS R568 SRE-reporter gene – response to CaCl2, SrCl2, MgCl2, GdCl3 and OCN"
NC(=O)CC[C@H](N)C(=O)O [L-glutamine],EC50,[2],> 1000 µM
same,activity in calcium mobilisation assays,[2],little or no activity
N[C@@H](Cc1c[nH]cn1)C(=O)O [L-histidine],EC50,[2],> 1000 µM
same,activity in calcium mobilisation assays,[2],little or no activity
CC(C)[C@H](N)C(=O)O [L-valine],EC50,[2],> 1000 µM
same,activity in calcium mobilisation assays,[2],little or no activity
[Cl-].[Cl-].[Mg+2] [MgCl2],SRE-reporter gene response,[1],"pERK1/2 – response to Ca^2+, Mg^2+, Gd^3+, Al^3+, NPS R568 SRE-reporter gene – response to CaCl2, SrCl2, MgCl2, GdCl3 and OCN"
COc1cccc([C@@H](C)NCCCc2ccccc2Cl)c1 [NPS R568],pERK1/2 response,[1],"pERK1/2 – response to Ca^2+, Mg^2+, Gd^3+, Al^3+, NPS R568 SRE-reporter gene – response to CaCl2, SrCl2, MgCl2, GdCl3 and OCN"
C[C@]1(O)CC[C@H]2[C@@H]3CCC4=CC(=O)CCC4=C3C=C[C@@]21C [R1881],"PSA, Runx2 expression response",[3],"pERK1/2 – response to Ca^2+, ZnCl2, OCN, Arginine, Testosterone-BSA Proliferation – response to Ca^2+, OCN PSA, Runx2 expression – response to OCN, Arg, R1881 Chemotaxis (22RV1) – response to Ca^2+, OCN"
same,SRE-reporter gene response,[4],"pERK1/2 – response to Testosterone-BSA, R1881 SRE-reporter gene – response to R1881, Ca^2+"
same,pERK1/2 response,[4],"pERK1/2 – response to Testosterone-BSA, R1881 SRE-reporter gene – response to R1881, Ca^2+"
[Cl-].[Cl-].[Sr+2] [SrCl2],SRE-reporter gene response,[1],"pERK1/2 – response to Ca^2+, Mg^2+, Gd^3+, Al^3+, NPS R568 SRE-reporter gene – response to CaCl2, SrCl2, MgCl2, GdCl3 and OCN"
"YLYQWLGAPVPYPDPLEPRREVCELNPDCDELADHIGFQEAYRRFYGPV-NH2/-COOH (disulfide) [human synthetic OCN, synthetic de-carboxylated human osteocalcin, Federation Bioscience]",change in cell impedance (cell index),[5]; listed as synthetic human OCN,significant changes in cell impedance; also recorded: Concentration-dependent increases in cell index
same,"GLP-1 release, OCN",[6],did not significantly modulate GLP-1 release
"human OCN: in b69: synthetic human OCN of Fig 7; in b64: human OCN of ref 11 (YLYQWLGAPVPYPDPLEPRREVCELNPDCDELADHIGFQEAYRRFYGPV; disulfide 23-29 (inferred); not fully specified; printed as YLYQWLGAPVPYPDPLEPRREVCELNPDCDELADHIGFQEAYRRFYGPV-NH2/-COOH; ends not checked; UniProt P02818 52-100, looked up)",change in cell impedance (cell index),[5],"significant, concentration-dependent activity"
same,OCN concentration stimulating cAMP accumulation,[7],60 ng/mL
mouse OCN: in b69: synthetic mouse OCN of Fig 7 (GSPEFYLGASVPSPDPLEPTREQCELNPACDELSDQYGLKTAYKRIYGITI; ends and bridges not checked; cysteine pairing not given here),change in cell impedance (cell index),[5],"significant, concentration-dependent activity"

# From publication PMC4718634, “Murine GPRC6A Mediates Cellular Responses to L-Amino Acids, but Not Osteocalcin Variants” (PLoS ONE, 2016)
